In ChEMBL document CHEMBL1149984, “Hygromycin A: preparation of aminocyclitol analogs defining the minimum functionality required for biological activity” (1992):
In brackets after ≈: the same amount, converted by molar mass.

How the values were obtained:
[1] = tested on: Pasteurella multocida; test: Minimum inhibitory concentration against Pasteurella multocida was determined; type: functional
[2] = tested on: Brachyspira hyodysenteriae; test: Minimum inhibitory concentration against Serpulina hyodysenteriae was determined; type: functional
[3] = Pasteurella multocida, read-out: MIC
[4] = Brachyspira hyodysenteriae, read-out: MIC

C=CCOc1ccc(/C=C(\C)C(=O)N[C@@H]2[C@H](O)[C@@H](O)[C@H]3OCO[C@H]3[C@@H]2O)cc1O
MIC [1, 3]: 1.56 µg/mL (≈ 3.83 µM) | MIC [2, 4]: 0.78 µg/mL (≈ 1.91 µM)

C/C(=C\c1ccc(O[C@@H]2O[C@H]([C@H](C)O)[C@@H](O)[C@@H]2O)c(O)c1)C(=O)N[C@@H]1CCCC[C@@H]1O
MIC [1, 3]: > 200 µg/mL | MIC [2, 4]: > 200 µg/mL

C=CCOc1ccc(/C=C(\C)C(=O)N[C@@H]2[C@H](O)[C@@H](O)CC[C@@H]2O)cc1O (racemic)
MIC [1]: 25 µg/mL (≈ 68.8 µM) | MIC [2]: 6.25 µg/mL (≈ 17.2 µM)

C=CCOc1ccc(/C=C(\C)C(=O)N[C@@H]2[C@H](O)CCC[C@@H]2O)cc1O
MIC [1, 3]: 100 µg/mL (≈ 288 µM) | MIC [2, 4]: 12.5 µg/mL (≈ 36 µM)

C=CCOc1ccc(/C=C(\C)C(=O)N[C@@H]2[C@H](O)[C@@H](O)CC[C@@H]2O)cc1O
MIC [1]: >200 µg/mL | MIC [2]: 100 µg/mL (≈ 275 µM)

CC(=O)[C@H]1O[C@@H](Oc2ccc(/C=C(\C)C(=O)N[C@@H]3[C@H](O)[C@@H](O)[C@H]4OCO[C@H]4[C@@H]3O)cc2O)[C@@H](O)[C@@H]1O [HYGROMYCIN A]
MIC [1, 3]: 1.56 µg/mL (≈ 3.05 µM) | MIC [2, 4]: 1.56 µg/mL (≈ 3.05 µM)
